Experimental data as given in article PMC11067750, “Biophysical and structural study of La Crosse virus endonuclease inhibition for the development of new antiviral options” (IUCrJ, 2024).
Several values for one entry are separate records, joined by “and”; a condition that tells them apart may be missing. Equal values may be shown once. Read-outs that look alike come from different tables or passages of the source.

Columns and labels:
LACV EndoN [1] = target: T1, LACV EndoN (Bunyavirus La Crosse, UniProt A5HC98); assay type: binding, La Crosse virus; details: for Stability ΔT m: 50 µM compound, 5 µM protein, baseline LACV EndoN in the presence of manganese (T m ≃ 56°C); for greater stabilization compared with DPBA: difference in ΔT m versus DPBA, with 0.5 mM MnCl2
Protocol: The influence of compound binding on the stability of LACV EndoN was measured by a Thermofluor assay using a CFX Connect Bio-Rad real-time PCR machine at a protein concentration of 5 µM in a buffer consisting of 20 mM Tris–HCl pH 7.6, 150 mM NaCl, 2.5 mM β-mercaptoethanol supplemented with 0.5 mM freshly prepared MnCl2. The compound concentration was fixed at 50 µM (5% DMSO). In 96-well thin-walled PCR plates, 1 µl inhibitor was added to 17 µl buffer followed by the addition of 2 µl protein. Finally, 2 µl of the fluorescent dye SYPRO Orange (Thermo Fisher, catalog No. 4461146) was added (a fivefold final concentration). Controls were performed using the same protocol without MnCl2. The melting-temperature (T m) values given are the average and standard deviation of three independent experiments.
DSF is used to assess protein stabilization or destabilization upon the addition of cofactors by measuring the thermal stability (the thermal melting transition T m) arising from interaction with a fluorescent dye (SYPRO Orange) during denaturation.
(c) Structures of the studied ligands.
Target sequence in this assay (A5HC98 1-183): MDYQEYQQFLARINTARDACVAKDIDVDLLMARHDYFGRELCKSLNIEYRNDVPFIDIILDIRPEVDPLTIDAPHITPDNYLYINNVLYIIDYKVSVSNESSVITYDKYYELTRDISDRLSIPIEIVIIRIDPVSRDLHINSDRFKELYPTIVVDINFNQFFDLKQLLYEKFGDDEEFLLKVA

LACV EndoN [2] = target: T1, LACV EndoN; experiment: Microscale thermophoresis (MST) binding affinity; design: species or system La Crosse virus; details: for Kd: Affinity K d, labelled protein 50 or 100 nM, 0.5 mM MnCl2, 5% DMSO, n = 3; for fold better affinity than DPBA: ratio of K d values versus DPBA
Target sequence in this assay (A5HC98 1-185): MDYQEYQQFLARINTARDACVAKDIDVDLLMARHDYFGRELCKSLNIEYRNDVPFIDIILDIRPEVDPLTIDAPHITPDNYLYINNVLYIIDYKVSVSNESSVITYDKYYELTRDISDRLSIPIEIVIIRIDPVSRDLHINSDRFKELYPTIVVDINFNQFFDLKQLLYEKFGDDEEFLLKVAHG

LACV EndoN [3] = target: T1, LACV EndoN; experiment: In vitro endonuclease FRET assay; assay type: biochemical, La Crosse virus; details: for fold greater inhibition efficiency than DPBA: ratio of IC50 values versus DPBA
Protocol: An in vitro endonuclease assay was used to investigate the inhibition of LACV EndoN by DPBA, L-742,001 and baloxavir. The reaction was conducted using a 20 µl sample in 20 mM Tris pH 7.6, 150 mM NaCl, 0.01% Tween 20, 1 mM DTT and was supplemented with 1 mM freshly prepared MnCl2. The 19-mer RNA at a concentration of 50 nM and a gradient concentration of inhibitor (from 0.004 to 100 µM) were pre-incubated at 25°C in the reaction buffer. The reaction was started upon the addition of LACV EndoN (pre-mixed with 1 mM MnCl2 and pre-incubated at 25°C for 5 min) at a final concentration of 0.25 µM. Fluorescence upon RNA cleavage was followed in a PHERAstar FSX microplate reader (BMG Labtech, Germany) at 25°C using wavelengths of 465 nm for excitation and 520 nm for emission.
The inhibition efficacies of the three ligands were tested against LACV EndoN in an endonuclease FRET assay and the results are summarized in Table 2 ▸. This was performed following the cleavage of a 19-mer RNA labelled with a 5′ fluorescent probe (6-FAM) and a 3′ quencher (BHQ1) in the presence of a range of ligand concentrations upon the addition of 0.25 µM LACV EndoN. In this FRET inhibition assay, the order in which the three partners of the catalytic complex (protein, ions and substrate RNA) are introduced is decisive. The reaction is triggered by adding the protein pre-incubated with ions to a mixture containing substrate RNA, ions and ligand. The design of the assay may constitute a limitation to the complete assessment of the binding efficiency of baloxavir to the enzyme, given the competition between substrate RNA, free ions and ligand. As described for FLUV, baloxavir is a tight-binding inhibitor with slow dissociation and acts by preventing binding of the RNA substrate (Omoto et al., 2018[▸]; Todd et al., 2021[▸]). In the context of the current biochemical assay, the interplay between the RNA substrate and the ligand presents an unfavourable scenario for binding of the metal-chelating ligand. […] This unexpected uniformity of the inhibition values underscores the remarkable potency of these compounds in the face of a challenging biochemical landscape.
Target sequence in this assay (A5HC98 1-185): as above

FLUV PA-Nter = target: FLUV PA-Nter; design: method as in DuBois et al., 2012; details: ref DuBois et al., 2012; cited from earlier work
LCMV EndoN = details: ref Saez-Ayala et al., 2018, 2019; cited from earlier work

Row | SMILES | T m increase upon addition of metal ions (LACV EndoN [1]; 0.5 mM MnCl2, versus LACV EndoN without ions (T m of 49°C)) [°C] | Stability ΔT m (LACV EndoN [1]; 0.5 mM MnCl2) | Stability ΔT m (LACV EndoN [1]; 0.5 mM MnCl2, listed as baloxavir) [°C] | greater stabilization compared with DPBA (LACV EndoN [1]) | Kd (LACV EndoN [2]) | fold better affinity than DPBA (LACV EndoN [2]) | IC50 (LACV EndoN [3]) [nM] | fold greater inhibition efficiency than DPBA (LACV EndoN [3]) | Kd (FLUV PA-Nter) [nM] | Kd (LCMV EndoN) [nM]
1 | [Cl][Mn][Cl] [MnCl2] | ~7 |  |  |  |  |  |  |  |  | 
2 | O=C1c2c(O)c(=O)ccn2N([C@@H]2c3ccccc3SCc3c2ccc(F)c3F)[C@@H]2COCCN12 [Baloxavir, (R)-12-((S)-7,8-Difluoro-6,11-dihydrodibenzo[b,e]thiepin-11-yl)-7-hydroxy-3,4,12,12a-tetrahydro-1H-[1,4]oxazino[3,4-c]pyrido[2,1-f][1,2,4]triazine-6,8-dione] |  | +12.72 ± 0.18 °C | ~13 | +6 °C | 19 ± 6 nM | 68 fold | 340 ± 20 | threefold |  | 
3 | O=C(O)C(=O)CC(=O)c1ccccc1 [DPBA, 2,4-Dioxo-4-phenylbutanoic acid] |  |  |  |  | 1350 ± 250 nM |  | 990 ± 60 |  | 4500 | 5400
4 | O=C(O)/C(O)=C/C(=O)C1(Cc2ccc(Cl)cc2)CCN(Cc2ccccc2)CC1 [L-742,001, (Z)-4-{1-benzyl-4-[(4-chlorophenyl)methyl]-piperidin-4-yl}-2-hydroxy-4-oxobut-2-enoic acid] |  |  |  | +4 °C | 600 nM and 614 nM | twofold | 650 ± 30 | 1.5 fold |  | 
